Values of other authors in patent US20070259820A1, “METHODS AND REAGENTS FOR ACTIVATING HEAT SHOCK PROTEIN 70” (THE REGENTS OF THE UNIVERSITY OF MICHIGAN, priority 2006, published 2007).

How the values were obtained:
Hsp70 [1] = conditions: prior-art statement in background
Hsp70 [2] = conditions: prior-art statement in background; remark: listed apart in the source

Row | SMILES | binding to Hsp70 in "pull-down" studies (Hsp70 [1]) | effect on Hsp70's ATPase activity (Hsp70 [2])
1 | NCCCNCCCCNC(=O)[C@H](O)NC(=O)C[C@@H](O)CCCCN=C(N)N [spergaulin] | bind Hsp70 | 
2 | N=C(N)NCCCCCCC(=O)NC(O)C(=O)NCCCCNCCCN (centres unmarked) [15-deoxyspergualin] |  | stimulate Hsp70's ATPase activity
